# Measurements published in US6596772B1, “Phosphate mimics and methods of treatment using phosphatase inhibitors” (Sugen, Inc., priority 1999, dated 2003).
# Read-outs that look alike come from different tables or passages of the source.
# Key:
# Test in all cases: PTP IC50 assay, pNPP or FDP as substrate
# Format in all cases: biochemical
# [1] = biological target: T1, PTP BETA (Homo sapiens, UniProt P23467)
# T1 construct: The catalytic domain was amplified using the following oligonucleotides; made in house; host or cells: E. coli BL-21 (pGEX 6P-1)
# Method: (§1) The following in vitro assay procedure is preferred to determine the level of activity and effect of the different compounds of the present invention on one or more of the PTPs. Similar assays can be designed along the same lines for any PTP using techniques well known in the art.
# (§2) The catalytic assays described herein are performed in a 96-well format. The general procedure begins with the determination of PTP optimal pH using a three-component buffer system that minimizes ionic strength variations across a wide range of buffer pH. Next, the Michaelis-Menten constant, or Km, is determined for each specific substrate-PTP system. This Km value is subsequently used as the substrate reaction concentration for compound screening. Finally, the test PTP is exposed to varying concentrations of compound for fifteen minutes and allowed to react with substrate for ten minutes. The results are plotted as percent inhibition versus compound concentration and the IC50 interpolated from the plot.
# (§3) All assays were performed using pNPP or FDP as substrate. The optimum pH was determined for each PTP used.
# (§4) PTPase activity was assayed at 25° C. in a 100-μl reaction mixture containing an appropriate concentration of pNPP or FDP as substrate. The reaction was initiated by addition of the PTP and quenched after 10 min by addition of 50 μl of IN NaOH. The non-enzymatic hydrolysis of the substrate was corrected by measuring the control without the addition of the enzyme. The amount of p-nitrophenol produced was determined from the absorbance at 410 nm. To determine the kinetic parameter, Km, the initial velocities were measured at various substrate concentrations and the data were fitted to the Michaelis equation where velocity=(Vmax*[S])/(Km+[S]), and [S]=substrate reaction concentration.
# (§5) The effect of the compounds on PTP was evaluated at 25° C. using pNPP or FDP as substrate. PTP was pre-incubated for fifteen minutes with various concentrations of compound. Substrate was then added at a fixed concentration (usually equal to the Km previously calculated). After 10 minutes, NaOH was added to stop the reaction. The hydrolysis of pNPP was followed at 410 nm on the Biotek Powerwave 200 microplate scanning spectrophotometer. The percent inhibition was calculated as follows: Percent Inhibition=[(control signal−compound signal)/control signal] ×100%. The IC50 was then determined by interpolation of a percent inhibition versus compound concentration plot.
# (§6) Plasmids designed for bacterial GST-PTP fusion protein expression were derived by insertion of PCR-generated human PTP fragments into pGEX vectors (Pharmacia Biotech). Several of these constructs were then used to subclone phosphatases into pFastBac-1for expression in Sf-9 insect cells. Oligonucleotides used for the initial amplification of PTP genes are shown below. The cDNAs were prepared using the Gilbo BRL superscript preamplification system on RNAs purchased from Clontech.
# The PTP Beta cDNA used has been described earlier (Levy et al., 1993, J. Biol. Chem, 268:10573-10581). The catalytic domain was amplified using the following oligonucleotides: 5′oligo: 5′-[…]-3′ (SEQ ID NO: 16) 3′oligo: 5′-[…]-3′ (SEQ ID NO: 17) and subsequently cloned into the Eco RI/Xho I sites of pGEX 6P-1.
# [2] = biological target: T2, PTP 1B (Homo sapiens, UniProt P18031)
# T2 construct: made in house; host or cells: Sf-9 insect cells (pFastBac-G2T)
# T2 sequence (P18031 1-435): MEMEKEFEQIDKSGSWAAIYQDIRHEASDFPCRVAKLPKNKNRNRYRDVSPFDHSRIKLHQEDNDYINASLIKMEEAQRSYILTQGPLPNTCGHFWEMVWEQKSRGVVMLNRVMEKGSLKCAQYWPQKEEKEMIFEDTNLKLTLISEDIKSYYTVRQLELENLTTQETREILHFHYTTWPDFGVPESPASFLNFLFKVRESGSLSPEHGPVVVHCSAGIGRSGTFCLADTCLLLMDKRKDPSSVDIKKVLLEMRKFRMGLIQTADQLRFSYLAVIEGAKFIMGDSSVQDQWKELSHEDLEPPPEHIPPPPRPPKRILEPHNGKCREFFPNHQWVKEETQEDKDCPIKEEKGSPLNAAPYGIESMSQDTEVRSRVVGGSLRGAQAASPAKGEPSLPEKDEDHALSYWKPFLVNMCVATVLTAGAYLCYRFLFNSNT
# Method: as §1, §2, §3, §4, §5, §6
# The PTP1b cDNA was amplified from human placenta single strand cDNA (Clontech RNA) using the following oligonucleotides: 5′oligo: 5′-[…] (SEQ ID NO: 4) 3′oligo: 5′-[…] (SEQ ID NO: 5) It was subsequently ligated into pFasBac G2TBamH1Xba-1 sites.
# [3] = biological target: T3, PTP SHP2 (Homo sapiens, UniProt Q06124)
# T3 construct: The catalytic domain was amplified using the following oligonucleotides; made in house; host or cells: Sf-9 insect cells (pFastBac-G2T)
# T3 sequence (Q06124 247-517 limits assumed): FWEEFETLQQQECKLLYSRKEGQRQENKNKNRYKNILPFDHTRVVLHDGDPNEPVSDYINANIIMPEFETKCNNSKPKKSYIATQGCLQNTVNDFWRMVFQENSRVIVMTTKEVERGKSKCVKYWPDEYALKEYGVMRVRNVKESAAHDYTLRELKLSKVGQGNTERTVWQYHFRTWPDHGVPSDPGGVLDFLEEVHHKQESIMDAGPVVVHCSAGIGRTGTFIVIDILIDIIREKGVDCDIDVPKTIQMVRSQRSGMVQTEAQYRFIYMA
# Method: as §1, §2, §3, §4, §5, §6
# SHP-2 cDNA was used as described earlier (Vogel W., et al.,1993, Science, 259:1611-4). The catalytic domain was amplified using the following oligonucleotides 5′oligo: 5′-[…]-3′ (SEQ ID NO: 2) 3′oligo: 5′-[…]-3′ (SEQ ID NO: 3) and subsequently subcloned into BamH1-Xba-1 sites. It was then ligated into pfas Bac-G2T BamH1-Xba-1 sites.
# [4] = biological target: T4, PTP ALPHA (Homo sapiens, UniProt P18433); settings: 25° C.
# T4 construct: RTPα intracellular domain construct was obtained; made in house; host or cells: E. coli BL-21 (pGEX 3X)
# Method: as §1, §2, §3, §4, §5, §6
# RTPα intracellular domain construct was obtained, Schlessinger et al., U.S. Pat. No. 5,888,794, the contents of which are hereby incorporated in their entirety into the present application. The RTPα fragment was cloned into pGEX 3× using the following procedure. The portion from EclX I/Xma III/Eag I (N-terminus blunted by Klenow) to Eco RV was cloned into the Sma I site. The EclX I site is approximately 15 residues downstream of the transmembrane domain.
# [5] = pNPP or FDP as substrate, 25° C., read-out: PTP IC50 Beta
# [6] = pNPP or FDP as substrate, 25° C., read-out: PTP IC50 1B
# [7] = pNPP or FDP as substrate, 25° C., read-out: PTP IC50 SHP2
# [8] = comparison of R groups, read-out: IC50 Beta
# [9] = comparison of R groups, read-out: IC50 1B
# [10] = comparison of R groups, read-out: IC50 SHP2
# T1 sequence (P23467 1653-1997): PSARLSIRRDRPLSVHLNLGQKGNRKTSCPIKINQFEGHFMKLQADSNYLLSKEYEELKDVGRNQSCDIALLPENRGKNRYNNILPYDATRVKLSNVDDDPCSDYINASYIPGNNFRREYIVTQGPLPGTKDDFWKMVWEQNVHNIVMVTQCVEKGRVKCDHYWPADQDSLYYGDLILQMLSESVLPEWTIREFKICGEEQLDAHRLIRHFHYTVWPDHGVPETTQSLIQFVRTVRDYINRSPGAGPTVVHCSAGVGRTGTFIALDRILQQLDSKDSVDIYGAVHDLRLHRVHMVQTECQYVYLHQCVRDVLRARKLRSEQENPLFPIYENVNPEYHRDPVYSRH
Compound,"IC50 [1, 5]","IC50 [2, 6]","IC50 [3, 7]","IC50 [1, 8]","IC50 [2, 9]","IC50 [3, 10]",IC50 [4]
1-(4-Aminophenoxy)-4-trifluoromethylsulfonamidophenoxy benzene [Example 72],22.7 µM,28.2 µM,17 µM,–,–,–,–
"O=[N+]([O-])c1cc(S(=O)(=O)C(F)(F)F)ccc1OC1CCC(Oc2ccc(S(=O)(=O)C(F)(F)F)cc2[N+](=O)[O-])C1 (mixture of isomers) [Example 12, 1,3-Bis-(2-nitro-4-trifluoromethanesulfonyl-phenoxy)-cyclopentane]",17.9 µM,> 100 µM,79.8 µM,–,–,–,–
CS(=O)(=O)Nc1ccc(Oc2ccc(Oc3ccc(NS(C)(=O)=O)cc3)cc2)cc1 [CH3SO2NH—],–,–,–,62.6 µM,51.9 µM,33.6 µM,–
"O=S(=O)(c1ccc(COCc2ccc(S(=O)(=O)C(F)(F)F)cc2)cc1)C(F)(F)F [Example 1, Bis (4-trifluoromethylsulfonylbenzyl) ether]",5.9 µM,> 100 µM,2 µM,–,–,–,> 100 µM
"O=[N+]([O-])c1cc(S(=O)(=O)C(F)(F)F)ccc1SSc1ccc(S(=O)(=O)C(F)(F)F)cc1[N+](=O)[O-] [Example 8, Bis-(2-nitro-4-trifluoromethylsulfonylphenyl) disulfide]",26.5 µM,46.8 µM,37 µM,–,–,–,–
"COC(=O)c1cc(Oc2ccc(S(=O)(=O)C(F)(F)F)cc2)cc(Oc2ccc(S(=O)(=O)C(F)(F)F)cc2)c1 [Example 9, 3,5-Bis-(4-trifluoromethanesulfonyl-phenoxy)-benzoic acid methyl ester]",45.6 µM,> 100 µM,> 100 µM,–,–,–,–
"COC(=O)Cc1cc(Oc2ccc(S(=O)(=O)C(F)(F)F)cc2[N+](=O)[O-])cc(Oc2ccc(S(=O)(=O)C(F)(F)F)cc2[N+](=O)[O-])c1 [Example 10, [3,5-Bis-(2-nitro-4-trifluoromethanesulfonyl-phenoxy)-phenyl]-acetic acid methyl ester]",20.5 µM,> 100 µM,> 100 µM,–,–,–,–
"COC(=O)c1cc(Oc2ccc(S(=O)(=O)C(F)(F)F)cc2[N+](=O)[O-])cc(Oc2ccc(S(=O)(=O)C(F)(F)F)cc2[N+](=O)[O-])c1 [Example 11, 3,5-Bis-(2-nitro-4-trifluoromethanesulfonyl-phenoxy)-benzoic acid methyl ester]",11.2 µM,> 100 µM,> 100 µM,–,–,–,–
"COC(=O)c1c(Oc2ccc(S(=O)(=O)C(F)(F)F)cc2[N+](=O)[O-])cc(C)cc1Oc1ccc(S(=O)(=O)C(F)(F)F)cc1[N+](=O)[O-] [Example 13, 4-Methyl-2,6-bis-(2-nitro-4-trifluoromethanesulfonyl-phenoxy)-benzoic acid methyl ester]",15.1 µM,> 100 µM,> 100 µM,–,–,–,–
"COC(=O)c1ccc(OCCOc2ccc(S(=O)(=O)C(F)(F)F)cc2[N+](=O)[O-])cc1 [Example 14, 4-[2-(2-nitro-4-trifluoromethanesulfonyl-phenoxy)-ethoxy]-benzoic acid methyl ester]",13.4 µM,> 100 µM,> 100 µM,–,–,–,–
"O=C(O)c1ccc(Oc2cccc(Oc3ccc(S(=O)(=O)C(F)(F)F)cc3[N+](=O)[O-])c2)cc1 [Example 15, 4-[3-(2-Nitro-4-trifluoromethanesulfonyl-phenoxy)-phenoxy]-benzoic acid]",10.3 µM,15.7 µM,10.7 µM,–,–,–,–
"COC(=O)c1cc(Oc2ccc(S(=O)(=O)C(F)(F)F)cc2[N+](=O)[O-])n(-c2cc(C(F)(F)F)cc(C(F)(F)F)c2)n1 [Example 16, 1-(3,5-Bis-trifluoromethyl-phenyl)-5-(2-nitro-4-trifluoromethanesulfonyl-phenoxy)-1H-pyrazole-3-carboxylic acid methyl ester]",9.6 µM,> 100 µM,> 100 µM,–,–,–,–
"CCOC(=O)COc1ccc(S(=O)(=O)c2ccc(Oc3ccc(S(=O)(=O)C(F)(F)F)cc3[N+](=O)[O-])cc2)cc1 [Example 17, {4-[4-(2-Nitro-4-trifluoromethanesulfonyl-phenoxy)-benzenesulfonyl]-phenoxy}-acetic acid ethyl ester]",26 µM,> 100 µM,> 100 µM,–,–,–,–
"O=S(=O)(Nc1ccc(Oc2ccc(NS(=O)(=O)C(F)(F)F)cc2)cc1)C(F)(F)F [Example 73, Bis(4-trifluoromethylsulfonamidophenyl) ether]",> 100 µM,> 100 µM,> 100 µM,–,–,–,–
"O=S(=O)(Nc1ccc(Oc2cccc(Oc3ccc(NS(=O)(=O)C(F)(F)F)cc3)c2)cc1)C(F)(F)F [Example 74, 1,3-Bis(4-trifluoromethylsulfonamidophenoxy)benzene]",26.6 µM,7.7 µM,2.8 µM,–,–,–,–
"O=S(=O)(Nc1ccc(-c2nnc(-c3ccc(NS(=O)(=O)C(F)(F)F)cc3)o2)cc1)C(F)(F)F [Example 75, 2,5-Bis(4-trifluoromethylsulfonamidophenyl)-(1,3,4)oxadiazole]",2.9 µM,8.4 µM,8 µM,–,–,–,–
CC(C)(c1ccc(NS(=O)(=O)C(F)(F)F)cc1)c1ccc(C(C)(C)c2ccc(NS(=O)(=O)C(F)(F)F)cc2)cc1 [Example 76],6.4 µM,2.5 µM,1.8 µM,–,–,–,–
Nc1ccc(Oc2ccc(Oc3ccc(N)cc3)cc2)cc1 [NH2],–,–,–,> 100 µM,> 100 µM,> 100 µM,–
